Earlier results as cited in patent US7947285B2, “Methods for preventing post endoscopic retrograde cholangiopancreatography pancreatitis” (priority 2003, dated 2011).

What was measured:
[1] = test system: post-ERCP pancreatitis; details: prophylaxis; meta-analysis of 28 clinical trials; cited from earlier work
[2] = test system: post-ERCP pancreatitis; details: high-risk patients; two large controlled trials; cited from earlier work
[3] = test system: post-ERCP pancreatitis; details: cited from earlier work
[4] = test system: post-ERCP pancreatitis; details: patients without pancreas divisum; retrospective review; cited from earlier work

Row | Compound | reducing the frequency of post-ERCP pancreatitis [1] | preventing post-ERCP pancreatitis [2] | effect on clinical course of post-ERCP pancreatitis ([3]; human, in vivo) | effect on hyperamylasemia ([3]; post-ERCP) | incidence of post-ERCP pancreatitis [4]
1 | CCOC(=O)c1ccc(OC(=O)CCCCCNC(=N)N)cc1 [gabexate] | effective | ineffective | – | – | –
2 | C[C@@H](O)[C@@H]1NC(=O)[C@H](CCCCN)NC(=O)[C@@H](Cc2c[nH]c3ccccc23)NC(=O)[C@H](Cc2ccccc2)NC(=O)[C@@H](NC(=O)[C@H](N)Cc2ccccc2)CSSC[C@@H](C(=O)N[C@H](CO)[C@@H](C)O)NC1=O [octreotide] | – | ineffective | has not been show to alter the clinical course | reduces hyperamylasemia | –
3 | secretin | – | – | – | – | might decrease the incidence
